The record followed here is US20100150985A1, “Dental Implant, Endodontic Instrument, and Dental Filling Material Coated with a Peptide-Based Antimicrobial and Methods of Using and Making the Same” (priority 2008, published 2010).

For one data set, the system named is Staphylococcus aureus. Kind of data set: in-vitro assay of immobilized peptide on 316L stainless steel pins. Format: cell-based. Particulars: peptide covalently bonded to parylene coated stainless steel pins, after ethylene oxide sterilization; data not shown. From the text:
Medical standard alloy 316L stainless steel pins were coated with an antimicrobial peptide layer to determine the efficacy of an immobilized antimicrobial peptide. The pins were coated with a tie layer. A parylene coating containing a reactive molecule specific for the N-terminus region of the peptide (“Photopolymer”) was then applied over the tie layer. The peptide WLBU-2 (SEQ ID NO. 179) was applied to the parylene coating and exposed to UV light to facilitate covalent bonding of the peptide with the parylene coating. Parylene coated stainless steel pins and non-coated stainless steel pins were used as controls. All samples and controls were subjected to ethylene oxide sterilization. The coated samples were placed in 75% relative humidity overnight.

A short description of data set [1]: retention of antimicrobial/biological activity after sterilization. Particulars: peptide coated on a substrate, ethylene oxide sterilization. From the text:
In a useful embodiment of the present invention, the antimicrobial peptides may retain antibacterial activity after a dental device coated with the antimicrobial, peptide is sterilized.

With “RRWVRRVRRVWRRVVRVVRRWVVRR (RRWVRRVRRVWRRVVRVVRRWVRR; Artificial peptide derived from HIV-1) [WLBU-2, Lytic Base Unit peptide]”, the “efficacy of immobilized antimicrobial peptide” value in the data set with Staphylococcus aureus is reported as “efficacy against Staphylococcus aureus”. In data set [1], the “antimicrobial activity after sterilization” value is listed as “retained antimicrobial activity”.
